In the assay the target is T1, IRAK4 (Homo sapiens, UniProt Q9NWZ3).
T1 construct: Degradation of IRAK4 in OCI-LY10 was quantitatively measured using Meso Scale Discovery technology; endogenous in cells; host or cells: OCI-LY10
T1 sequence (Q9NWZ3 1-460): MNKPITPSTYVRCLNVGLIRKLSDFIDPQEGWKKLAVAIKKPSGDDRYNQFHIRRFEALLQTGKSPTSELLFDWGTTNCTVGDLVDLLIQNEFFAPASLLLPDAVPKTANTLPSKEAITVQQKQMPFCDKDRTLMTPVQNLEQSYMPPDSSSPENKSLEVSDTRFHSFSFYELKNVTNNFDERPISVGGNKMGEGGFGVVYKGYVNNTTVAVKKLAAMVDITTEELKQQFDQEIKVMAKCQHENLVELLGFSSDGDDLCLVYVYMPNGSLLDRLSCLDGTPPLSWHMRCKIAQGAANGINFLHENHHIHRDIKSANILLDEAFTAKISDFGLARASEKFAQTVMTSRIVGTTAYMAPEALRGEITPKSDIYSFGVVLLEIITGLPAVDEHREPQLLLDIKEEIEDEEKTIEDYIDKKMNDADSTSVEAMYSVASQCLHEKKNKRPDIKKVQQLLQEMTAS
Nature of the assay: IRAK4 MSD Degradation in OCI-LY10. The assay is classed as cell-based. The note with it: OCI-LY10 cells. The method, boiled down:
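DC50, from a three-parameter logistic fit and reported as letter bins A (<0.01 μM), B, C, D (>0.2 μM or not tested), reflects IRAK4 loss measured by MSD electrochemiluminescence in OCI-LY10 lysates. Treatment: 8 doses, 1:3 steps, top 1 to 10 μM, 4 to 24 h, 37 °C.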

[1] abbreviates: 4 hrs incubation, MSD, read-out: IRAK4 degradation in OCI-LY10 at 4 hrs: DC50.
Setting [2] is: 24 hrs incubation, MSD, read-out: IRAK4 degradation in OCI-LY10 at 24 hrs: DC50.
Where [3] appears, read: 4 hrs incubation, read-out: IRAK4 degradation in OCI-LY10 at 4 hrs: DC50.
The mark [4] stands for this setting: 24 hrs incubation, read-out: IRAK4 degradation in OCI-LY10 at 24 hrs: DC50.

Read-outs that look alike come from different tables or passages of the source. A value given as a limit tells only on which side of the number the result lay.

One may read the DC50 as the concentration giving 50% degradation.

As to `Cn1c(NC(=O)c2cccc(C(F)(F)F)n2)cc2cn([C@H]3CC[C@H](CN4CC[C@@H](c5cccc6c5n(C)c(=O)n6C5CCC(=O)NC5=O)[C@H](F)C4)CC3)nc2c1=O` (stereo partly shown) [I-776], the DC50 reads like this: under setting [1], above 200 nM; under setting [2], above 200 nM. Turning to `Cn1c(=O)n(C2CCC(=O)NC2=O)c2cccc(N3CCC(C[C@H]4CC[C@H](n5cc6cc(NC(=O)c7cccc(C(F)(F)F)n7)ncc6n5)CC4)CC3)c21` (stereo partly shown) [I-777], the DC50 was above 200 nM under setting [1] and above 200 nM under setting [2].

Regarding `O=C1CCC(c2ccc(N3CC(CN4CCN(C[C@H]5CC[C@H](n6cc(NC(=O)c7cnn8ccc(N9C[C@H]%10C[C@@H]9CO%10)nc78)c(C(F)F)n6)CC5)CC4)C3)cc2Cl)C(=O)N1` (stereo partly shown) [I-778], the 50% degradation concentration (DC50) reads like this: under setting [1], above 200 nM; under setting [2], above 200 nM. With `O=C1CCC(c2ccc(N3CC(N4CCN([C@H]5CC[C@H](n6cc(NC(=O)c7cnn8ccc(N9C[C@H]%10C[C@@H]9CO%10)nc78)c(C(F)F)n6)CC5)CC4)C3)cc2Cl)C(=O)N1` (stereo partly shown) [I-779], the DC50 is above 200 nM under setting [1] and above 200 nM under setting [2].

With `O=C1CCC(c2ccc([C@H]3C[C@H](CO[C@H]4CCN(C[C@H]5CC[C@H](n6cc(NC(=O)c7cnn8ccc(N9C[C@H]%10C[C@@H]9CO%10)nc78)c(C(F)F)n6)CC5)C[C@H]4F)C3)cc2Cl)C(=O)N1` (stereo partly shown) [I-780], the DC50 reads like this: under setting [1], above 200 nM; under setting [2], above 200 nM. In the case of `COc1cc2nn([C@H]3CC[C@H](CN4CC[C@@H](c5cccc6c5n(C)c(=O)n6C5CCC(=O)NC5=O)[C@H](F)C4)CC3)cc2cc1NC(=O)c1cccc(C(F)(F)F)n1` (stereo partly shown) [I-783], the DC50 under setting [1] is above 200 nM and the DC50 under setting [2] is above 200 nM. In the case of `COc1cc2nn([C@H]3CC[C@H](CN4CC[C@H](c5cccc6c5n(C)c(=O)n6C5CCC(=O)NC5=O)[C@@H](F)C4)CC3)cc2cc1NC(=O)c1cccc(C(F)(F)F)n1` (stereo partly shown) [I-784], the DC50 by setting is: under setting [1], above 200 nM; under setting [2], above 200 nM.

For `Cn1c(=O)n(C2CCC(=O)NC2=O)c2cccc(N3CC(CCC4(F)CN(C[C@H]5CC[C@H](n6cc(NC(=O)c7cnn8ccc(N9C[C@H]%10C[C@@H]9CO%10)nc78)c(C(F)F)n6)CC5)C4)C3)c21` (stereo partly shown) [I-785], the half-maximal degradation concentration (DC50) under setting [1] is above 200 nM and the DC50 under setting [2] is above 200 nM. In the case of `Cn1c(=O)n(C2CCC(=O)NC2=O)c2cccc(N3CCC(OC[C@H]4CC[C@H](n5cc(NC(=O)c6cnn7cccnc67)c(C(F)F)n5)CC4)CC3)c21` (stereo partly shown) [I-786], the half-maximal degradation concentration (DC50) under setting [1] is above 200 nM. As for `CN(CC1(F)CCN(c2cccc3c2n(C)c(=O)n3C2CCC(=O)NC2=O)CC1)C1CCC(n2cc3cc(NC(=O)c4cccc(C(F)(F)F)n4)ncc3n2)CC1` (stereo not shown) [I-787], the 50% degradation concentration (DC50) was above 200 nM under setting [1] and above 200 nM under setting [2]. Regarding `CN(CC1(F)CCN(c2cccc3c2n(C)c(=O)n3C2CCC(=O)NC2=O)CC1)C1CCC(n2cc3cc(NC(=O)c4cccc(C(F)(F)F)n4)ccc3n2)CC1` (stereo not shown) [I-788], the 50% degradation concentration (DC50) was above 200 nM under setting [1] and above 200 nM under setting [2]. On to `Cn1c(=O)n(C2CCC(=O)NC2=O)c2cccc(N3CC(F)(CN(C)[C@H]4CC[C@H](n5cc6cc(NC(=O)c7cccc(C(F)(F)F)n7)ncc6n5)CC4)C3)c21` (stereo partly shown) [I-789], for which the 50% degradation concentration (DC50) runs as follows: under setting [1], above 200 nM; under setting [2], above 200 nM. Take `Cn1c(=O)n(C2CCC(=O)NC2=O)c2cccc(N3CC(F)(CN(C)[C@H]4CC[C@H](n5cc6cc(NC(=O)c7cccc(C(F)(F)F)n7)ccc6n5)CC4)C3)c21` (stereo partly shown) [I-790]: the 50% degradation concentration (DC50) is above 200 nM under setting [1] and above 200 nM under setting [2]. Turning to `Cn1c(=O)n(C2CCC(=O)NC2=O)c2cccc(N3CCC(O[C@H]4CC[C@H](n5cc6cc(NC(=O)c7cccc(C(F)(F)F)n7)ncc6n5)CC4)CC3)c21` (stereo partly shown) [I-791], the half-maximal degradation concentration (DC50) was above 200 nM under setting [1] and above 200 nM under setting [2]. `Cn1c(=O)n(C2CCC(=O)NC2=O)c2cccc(N3CCC(O[C@H]4CC[C@H](n5cc6cc(NC(=O)c7cccc(C(F)(F)F)n7)ccc6n5)CC4)CC3)c21` (stereo partly shown) [I-792]: the half-maximal degradation concentration (DC50) under setting [1] is above 200 nM and the DC50 under setting [2] was above 200 nM. On to `Cn1c(=O)n(C2CCC(=O)NC2=O)c2cccc(N3CCC(O[C@H]4CC[C@H](n5cc6cc(NC(=O)c7cccc(C(F)(F)F)n7)ncc6n5)CC4)C3)c21` (stereo partly shown) [I-793], for which the DC50 under setting [1] was above 200 nM and the half-maximal degradation concentration (DC50) under setting [2] is above 200 nM.

`Cn1c(=O)n(C2CCC(=O)NC2=O)c2cccc(N3CCC(O[C@H]4CC[C@H](n5cc6cc(NC(=O)c7cccc(C(F)(F)F)n7)ccc6n5)CC4)C3)c21` (stereo partly shown) [I-794]: the DC50 under setting [3] was above 200 nM and the DC50 under setting [4] was above 200 nM. As to `Cn1c(=O)n(C2CCC(=O)NC2=O)c2cccc(N3CC(O[C@H]4CC[C@H](n5cc6cc(NC(=O)c7cccc(C(F)(F)F)n7)ncc6n5)CC4)C3)c21` (stereo partly shown) [I-795], the 50% degradation concentration (DC50) under setting [3] was above 200 nM and the half-maximal degradation concentration (DC50) under setting [4] is above 200 nM. `Cn1c(=O)n(C2CCC(=O)NC2=O)c2cccc(N3CC(O[C@H]4CC[C@H](n5cc6cc(NC(=O)c7cccc(C(F)(F)F)n7)ccc6n5)CC4)C3)c21` (stereo partly shown) [I-796]: the half-maximal degradation concentration (DC50) is above 200 nM under setting [3] and above 200 nM under setting [4].

The values are drawn from patent US12091411B2, “IRAK degraders and uses thereof” (Kymera Therapeutics, Inc., priority 2022, dated 2024).
